Measured values published in article PMC5428333, “Novel protein acetyltransferase, Rv2170, modulates carbon and energy metabolism in Mycobacterium tuberculosis” (Scientific Reports, 2017).

Target: T1, ICDH1 (Rv3339c) (Mycobacterium tuberculosis, UniProt P9WKL1)
T1 construct: gene icd-1
Experiment: NADPH formation at […] nm
Format: biochemical
Settings: 2 mM NADP+, 0.25 mM DL-isocitrate, 10 mM MgCl2, 5 mM MnCl2, 20 mM Tris-HCl pH 7.5, room temperature

T1 sequence (P9WKL1 whole entry): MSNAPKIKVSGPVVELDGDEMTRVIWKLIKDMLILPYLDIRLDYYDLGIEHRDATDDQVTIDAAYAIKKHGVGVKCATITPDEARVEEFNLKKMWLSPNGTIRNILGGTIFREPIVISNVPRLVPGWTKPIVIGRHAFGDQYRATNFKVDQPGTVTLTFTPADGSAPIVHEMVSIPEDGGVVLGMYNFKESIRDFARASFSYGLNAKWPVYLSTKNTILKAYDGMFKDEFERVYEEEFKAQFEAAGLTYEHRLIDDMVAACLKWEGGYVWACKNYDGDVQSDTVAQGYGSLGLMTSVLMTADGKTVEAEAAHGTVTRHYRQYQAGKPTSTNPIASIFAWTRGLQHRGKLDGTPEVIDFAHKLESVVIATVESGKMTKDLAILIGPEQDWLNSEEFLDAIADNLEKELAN

With `NC(=O)c1ccc[n+]([C@@H]2O[C@H](COP(=O)(O)OP(=O)(O)OC[C@H]3O[C@@H](n4cnc5c(N)ncnc54)[C@H](OP(=O)(O)O)[C@@H]3O)[C@@H](O)[C@H]2O)c1` [NADP^+] the “NADPH formation at 340 nm” value was “monitoring the time dependent reduction of NADP^+ to NADPH”.
